Measurements: patent publication US20250268884A1, “Deuterated Domperidone for Treating Gastroparesis” (CinDome Pharma, Inc., priority 2022, published 2025)

System: adults with idiopathic or diabetic gastroparesis
Assay: PAGI-SYM questionnaire total and subscale scores, Phase 2a
Format: in vivo, human
Conditions: mean, Safety Population
Protocol: Subjects were Evaluated as Follows: • Days −28 to −11: Screening procedures were performed. The ANMS GCSI-DD questionnaire was completed daily for at least 14 days prior to randomization (Day 1); • Days −10 to −3: The ANMS GCSI-DD questionnaire was completed daily. A GEBT was performed on a single day within this window, with breath samples obtained twice prior to consumption of a standardized, carbon-13 (^13C)-enriched meal and then at 45, 90, 120, 150, 180, and 240 minutes after meal consumption after an 8-hour fast. […] On Day 14 (±2 days), the PAGI-SYM and Clinical Grading Assessment questionnaires were completed prior to the final dose of study drug. • A GEBT was administered 30 minutes after study drug administration on Day 14 (±2 days). Breath samples were obtained twice prior to ^13C-enriched meal consumption and then at 45, 90, 120, 150, 180, and 240 minutes after meal consumption after an 8-hour fast. If a subject withdrew from the study prior to the Day 14 (±2 days) GEBT, attempts should have been made to perform a GEBT on the last day of study drug administration. Clinical Grading Assessment Scales were also performed.
The PAGI-SYM includes 6 subscales: heartburn/regurgitation, fullness/early satiety, nausea/vomiting, bloating, upper abdominal pain, and lower abdominal pain.

## [2H]c1c([2H])c([2H])c2c([nH]c(=O)n2CCCN2CCC(n3c(=O)[nH]c4cc(Cl)ccc43)CC2)c1[2H] [Deudomperidone, 1-{3-[4-(5-chloro-2-oxo-2,3-dihydro-1H-1,3-benzodiazol-1-yl)piperidin-1yl]propyl}-2,3-dihydro(4,5,6,7-D4)-1H-1,3-benzodiazol-2-one]
5 mg BID
  PAGI-SYM bloating subscale score, Baseline: 3.67
  PAGI-SYM bloating subscale score, Change from baseline to Day 14: −1.00
  PAGI-SYM bloating subscale score, Day 14: 2.67
  PAGI-SYM bloating subscale score, Percent change from baseline to Day 14: −30.16%
  PAGI-SYM fullness/early satiety subscale score, Baseline: 3.89
  PAGI-SYM fullness/early satiety subscale score, Change from baseline to Day 14: −1.53
  PAGI-SYM fullness/early satiety subscale score, Day 14: 2.36
  PAGI-SYM fullness/early satiety subscale score, Percent change from baseline to Day 14: −38.04%
  PAGI-SYM heartburn/regurgitation subscale score, Baseline: 3.63
  PAGI-SYM heartburn/regurgitation subscale score, Change from baseline to Day 14: −1.79
  PAGI-SYM heartburn/regurgitation subscale score, Day 14: 1.84
  PAGI-SYM heartburn/regurgitation subscale score, Percent change from baseline to Day 14: −50.23%
  PAGI-SYM lower abdominal pain subscale score, Baseline: 3.11
  PAGI-SYM lower abdominal pain subscale score, Change from baseline to Day 14: −1.67
  PAGI-SYM lower abdominal pain subscale score, Day 14: 1.44
  PAGI-SYM lower abdominal pain subscale score, Percent change from baseline to Day 14: −52.08%
  PAGI-SYM nausea/vomiting subscale score, Baseline: 2.74
  PAGI-SYM nausea/vomiting subscale score, Change from baseline to Day 14: −1.00
  PAGI-SYM nausea/vomiting subscale score, Day 14: 1.74
  PAGI-SYM nausea/vomiting subscale score, Percent change from baseline to Day 14: −39.58%
  PAGI-SYM total score, Baseline: 3.37
  PAGI-SYM total score, Change from baseline to Day 14: −1.35
  PAGI-SYM total score, Day 14: 2.02
  PAGI-SYM total score, Percent change from baseline to Day 14: −40.13%
  PAGI-SYM upper abdominal pain subscale score, Baseline: 3.17
  PAGI-SYM upper abdominal pain subscale score, Change from baseline to Day 14: −1.11
  PAGI-SYM upper abdominal pain subscale score, Day 14: 2.06
  PAGI-SYM upper abdominal pain subscale score, Percent change from baseline to Day 14: −37.28%
10 mg BID
  PAGI-SYM bloating subscale score, Baseline: 3.84
  PAGI-SYM bloating subscale score, Change from baseline to Day 14: −1.17
  PAGI-SYM bloating subscale score, Day 14: 2.65
  PAGI-SYM bloating subscale score, Percent change from baseline to Day 14: −26.78%
  PAGI-SYM fullness/early satiety subscale score, Baseline: 3.60
  PAGI-SYM fullness/early satiety subscale score, Change from baseline to Day 14: −0.88
  PAGI-SYM fullness/early satiety subscale score, Day 14: 2.71
  PAGI-SYM fullness/early satiety subscale score, Percent change from baseline to Day 14: −24.08%
  PAGI-SYM heartburn/regurgitation subscale score, Baseline: 2.67
  PAGI-SYM heartburn/regurgitation subscale score, Change from baseline to Day 14: −1.07
  PAGI-SYM heartburn/regurgitation subscale score, Day 14: 1.62
  PAGI-SYM heartburn/regurgitation subscale score, Percent change from baseline to Day 14: −25.45%
  PAGI-SYM lower abdominal pain subscale score, Baseline: 2.02
  PAGI-SYM lower abdominal pain subscale score, Change from baseline to Day 14: −0.79
  PAGI-SYM lower abdominal pain subscale score, Day 14: 1.25
  PAGI-SYM lower abdominal pain subscale score, Percent change from baseline to Day 14: −38.38%
  PAGI-SYM nausea/vomiting subscale score, Baseline: 2.75
  PAGI-SYM nausea/vomiting subscale score, Change from baseline to Day 14: −0.93
  PAGI-SYM nausea/vomiting subscale score, Day 14: 1.78
  PAGI-SYM nausea/vomiting subscale score, Percent change from baseline to Day 14: −30.39%
  PAGI-SYM total score, Baseline: 2.94
  PAGI-SYM total score, Change from baseline to Day 14: −0.97
  PAGI-SYM total score, Day 14: 1.97
  PAGI-SYM total score, Percent change from baseline to Day 14: −31.18%
  PAGI-SYM upper abdominal pain subscale score, Baseline: 2.74
  PAGI-SYM upper abdominal pain subscale score, Change from baseline to Day 14: −0.97
  PAGI-SYM upper abdominal pain subscale score, Day 14: 1.82
  PAGI-SYM upper abdominal pain subscale score, Percent change from baseline to Day 14: −24.47%
20 mg QD
  PAGI-SYM bloating subscale score, Baseline: 3.57
  PAGI-SYM bloating subscale score, Change from baseline to Day 14: −1.10
  PAGI-SYM bloating subscale score, Day 14: 2.47
  PAGI-SYM bloating subscale score, Percent change from baseline to Day 14: −36.38%
  PAGI-SYM fullness/early satiety subscale score, Baseline: 3.42
  PAGI-SYM fullness/early satiety subscale score, Change from baseline to Day 14: −1.10
  PAGI-SYM fullness/early satiety subscale score, Day 14: 2.32
  PAGI-SYM fullness/early satiety subscale score, Percent change from baseline to Day 14: −31.45%
